Consider eleven molecules from ChEMBL document CHEMBL1129218, “Bisbenzamidine isoxazoline derivatives as factor Xa inhibitors” (Bioorg Med Chem Lett, 1997).

For one test, the target named is Coagulation factor X (Homo sapiens, UniProt P00742). The test can be described thus: Inhibition of Factor Xa.
For test [1], the system named is Rattus norvegicus. The test can be described thus: Percent inhibition for thrombus formation after intravenous infusion at 5 mg/kg/h in a rat vena cava thrombosis model. Format: functional.
Test [2] deals with Rattus norvegicus. The test can be described thus: Percent inhibition for thrombus formation after intravenous infusion at 1 mg/kg/h in a rat vena cava thrombosis model. Format: functional.
Another test has as its target Prothrombin (Homo sapiens, UniProt P00734). The test can be described thus: The compound was evaluated for inhibitory activity against Thrombin.
The species entered for test [3] is Rattus norvegicus. The test can be described thus: Compound was tested for inhibitory dose which produced 50% inhibition of thrombus formation in a rat vena cava thrombosis model. It counts as functional.
The next test has as its target Serine protease 1 (Homo sapiens, UniProt P07477). The test can be described thus: The compound was evaluated for inhibitory activity against Trypsin.

Chain of Coagulation factor X (P00742 41-179 limits assumed): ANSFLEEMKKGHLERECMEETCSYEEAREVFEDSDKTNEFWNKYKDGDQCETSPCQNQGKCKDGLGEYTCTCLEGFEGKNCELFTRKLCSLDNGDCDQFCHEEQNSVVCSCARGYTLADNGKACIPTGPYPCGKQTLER
Chain of Coagulation factor X (P00742 235-488 limits assumed): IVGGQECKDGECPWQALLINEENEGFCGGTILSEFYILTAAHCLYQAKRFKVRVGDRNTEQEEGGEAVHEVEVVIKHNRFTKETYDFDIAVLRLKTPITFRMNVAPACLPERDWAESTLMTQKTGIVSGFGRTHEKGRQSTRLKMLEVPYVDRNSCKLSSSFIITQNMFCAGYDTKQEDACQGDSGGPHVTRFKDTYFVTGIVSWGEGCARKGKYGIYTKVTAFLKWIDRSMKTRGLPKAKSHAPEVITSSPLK
Chain of Serine protease 1 (P07477 whole entry): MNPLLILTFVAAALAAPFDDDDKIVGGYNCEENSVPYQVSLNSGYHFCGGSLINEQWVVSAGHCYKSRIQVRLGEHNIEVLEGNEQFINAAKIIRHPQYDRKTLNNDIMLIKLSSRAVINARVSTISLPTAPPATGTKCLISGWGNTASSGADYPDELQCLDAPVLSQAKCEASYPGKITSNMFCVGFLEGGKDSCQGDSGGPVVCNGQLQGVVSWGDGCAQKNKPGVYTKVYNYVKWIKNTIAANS

One may read the Ki as the equilibrium dissociation constant of an inhibitor or competing ligand from its target. High values mean lower affinity, low ones higher affinity. Molecule `N=C(N)c1ccc(/C=C2/CCCC/C(=C\c3ccc(C(=N)N)cc3)C2=O)cc1` registered a Ki at Coagulation factor X of 0.013 µM.
In general, inhibition in vivo refers to the change of the read-out against control, counted positive when it falls. In the case of `COC(=O)CC1(C(=O)Nc2ccc(C(=N)N)cc2)CC(c2cccc(C(=N)N)c2)=NO1` (stereo unspecified), the inhibition in vivo at 5 mg/kg/h with Rattus norvegicus [1] turned out to be 80%. Further, in the test on Rattus norvegicus [2], the inhibition in vivo at 1 mg/kg/h was determined as 40%. The Ki on Prothrombin was 16 µM; at Serine protease 1, 0.48 µM. In the test filed under Rattus norvegicus [3], this molecule gave an ID50 of 1.6 mg/kg/h.
With `N=C(N)c1ccc(NC(=O)C2CC(c3cccc(C(=N)N)c3)=NO2)cc1` (stereo unspecified), the Ki was 0.27 µM at Coagulation factor X, 16 µM on Prothrombin and 0.7 µM at Serine protease 1.
The like results for `N=C(N)c1ccc(C2=NOC(CC(=O)Nc3cccc(C(=N)N)c3)C2)cc1` (stereo unspecified) were, in that order, 0.87 µM, 2.2 µM and 0.51 µM.
On the same counts, the results for `N=C(N)c1ccc(NC(=O)C2(CC(=O)O)CC(c3cccc(C(=N)N)c3)=NO2)cc1` (stereo unspecified) are 0.143 µM, over 21 µM and over 1.2 µM.
On the same counts, the results for `COC(=O)CNC(=O)CC1(C(=O)Nc2ccc(C(=N)N)cc2)CC(c2cccc(C(=N)N)c2)=NO1` (stereo unspecified) are 0.018 µM, 3.1 µM and 0.42 µM.
`N=C(N)c1ccc(NC(=O)CC2CC(c3ccc(C(=N)N)cc3)=NO2)cc1` (stereo unspecified): the values for the Ki at Coagulation factor X and at Prothrombin were 1.7 µM and 2.2 µM, respectively.
Regarding `N=C(N)c1cccc(NC(=O)CC2CC(c3cccc(C(=N)N)c3)=NO2)c1` (stereo unspecified), the Ki on Coagulation factor X was 1.8 µM; on Prothrombin, 11.2 µM; at Serine protease 1, over 1.2 µM.
On to `N=C(N)c1ccc(NC(=O)CC2CC(c3cccc(C(=N)N)c3)=NO2)cc1` (stereo unspecified), for which the results for the Ki on Coagulation factor X and on Prothrombin were 1.4 µM and 11.1 µM, respectively.
Consider `COC(=O)CC1(C(=O)Nc2cccc(C(=N)N)c2)CC(c2ccc(C(=N)N)cc2)=NO1` (stereo unspecified), for which the Ki at Coagulation factor X was 0.117 µM; at Prothrombin, 14.1 µM; on Serine protease 1, over 1.2 µM.
Turning to `COC(=O)CC1(C(=O)Nc2cccc(C(=N)N)c2)CC(c2cccc(C(=N)N)c2)=NO1` (stereo unspecified), the Ki on Coagulation factor X was found to be 0.8 µM; on Prothrombin, 11.8 µM; at Serine protease 1, 0.23 µM.
